The text below walks through data of patent US4001248A, “N-cycloalkylmethyl decahydroisoquinolines” (Eli Lilly and Company, priority 1974, dated 1977).

Counter-ions that a name gives are not always drawn. Like-named read-outs stand apart in the source and are kept apart here.

The test system of data set [1] is rat tail jerk. In words: rat tail jerk assay (increase in reaction time over control). The data set is classed as in vivo. An excerpt:
The compounds of this invention are also active in the rat tail jerk assay, another standard pharmacologic test for analgesic activity of the opiate-type. Such activity is manifested as an increase in the reaction time of the animal in removing (jerking) its tail from a nearby heat stimulus (a resistance wire) after drug administration compared to control time (no drug administered). Table 2 which follows gives the increased reaction times over control times produced by the compounds of this invention when administered subcutaneously. In Tables 2 and 3, column 1 gives the name of the compound; column 2, the dose; column 3, time of observation after administration of the drug; column 4, the increase in reaction time above control in seconds; and column 5, the level of significance of the results ("p" value). […] All drugs were administered as aqueous solutions. More than one value for a given dose level indicates multiple determinations. The results are not averaged.

The subject of data set [2] is writhing in mice induced by the intraperitoneal injection of acetic acid. Description: mouse-writhing test (inhibition of writhing induced by intraperitoneal acetic acid). The data set is classed as in vivo. The following applies: for ED50: Mus musculus, read-out: Median inhibiting dose (I.D.50). The text has this:
In the Table, column 1 gives the name of the compund; column 2, the dosage in mg./kg. of mouse weight; column 3, the route of administration of the drug ("S.C." is subcutaneous and "or" is oral); and column 4, the percent inhibition found at the particular dose level. […] Median inhibiting doses (I.D.50) are also included in the Table.
Background: An intraperitoneal irritant provokes the stretching counted in writhing tests.

The subject of data set [3] is morphine. In words: modified rat tail jerk assay, antagonism of morphine. Format: in vivo, rats. The method, then: The ability of the compounds of this invention to antagonize the action of morphine, an opiate, is shown by the following modification of the aforementioned rat tail jerk assay: The standard assay procedure is used with the exception that a 7 amps. current is used instead of a 6 amps. current in the hot wire to decrease the measurable agonist effects of the antagonist. The drugs under test are then administered to groups of rats at different dose levels at different times prior to test, with a 5 mg./kg. dose of morphine invariably being administered 10 minutes prior to test. Positive evidence of antagonism is a decreased reaction time over that to be expected from the morphine. […] Among the compounds of this invention, those in which R in Structure I is cyclopropylmethyl are the preferred antagonists, showing activity in the above test procedure. […] In a series of determinations, it was ascertained that the minimum subcutaneous dose necessary to reduce the analgesic effects of a 5 mg./kg. subcutaneous dose of morphine was in the range 2.5-5.0 mg./kg. and the minimum oral dose, 5-10 mg./kg.

The conditions of data set [4]: prior art; cited from earlier work.
[5] abbreviates: 20 mg./kg. S.C., reading at 0.5 hours.
Setting [6] is: 20 mg./kg. oral, reading at 0.5 hours.
Setting [7] is: 100 mg./kg. S.C., reading at 0.5 hours.
[8] abbreviates: 100 mg./kg. oral, reading at 0.5 hours.

Turning to `Oc1cccc([C@]23CCCC[C@@H]2CN(CC2CCC2)CC3)c1` (relative stereo) [Trans-dl-1-cyclobutylmethyl-3a-(m-hydroxyphenyl)-1,2,3,3a,4,5,6,7,7a,8-decahydroisoquinoline maleate], the “Increase in Reaction Time Over Control” value in data set [1] (oral, 10 mg./kg., 10 min) is “.43 s”; in data set [1] (oral, 10 mg./kg., 30 min), “.63 s”; in data set [1] (oral, 10 mg./kg., 60 min), “.21 s”; in data set [1] (oral, 25 mg./kg., 30 min), 1.71 s; in data set [1] (oral, 25 mg./kg., 60 min), 1.04 s; in data set [1] (oral, 50 mg./kg., 30 min), 12.42 s. For the same molecule, the “Increase in Reaction Time Over Control” value in data set [1] (subcutaneous, 0.25 mg./kg., 30 min) was “.71 s”; in data set [1] (subcutaneous, 0.5 mg./kg., 30 min), “.21 s”; in data set [1] (subcutaneous, 1 mg./kg., 10 min), “.46 s”; in data set [1] (subcutaneous, 1 mg./kg., 30 min), 1.63 s; in data set [1] (subcutaneous, 1 mg./kg., 60 min) it was “.17 s”; in data set [1] (subcutaneous, 2 mg./kg., 10 min) it was 2.17 s. Besides, the “Increase in Reaction Time Over Control” value was 2.50 s in data set [1] (subcutaneous, 2 mg./kg., 30 min); “.96 s” in data set [1] (subcutaneous, 2 mg./kg., 60 min); 17.88 s in data set [1] (subcutaneous, 10 mg./kg., 10 min); 23.04 s in data set [1] (subcutaneous, 10 mg./kg., 30 min); 22.13 s in data set [1] (subcutaneous, 10 mg./kg., 60 min). Also, the % Inhibition – broadly, the share of the control response that was lost under treatment – stood at 46% in data set [2] (1 mg./kg. S.C., reading at 0.5 hours); 96% in data set [2] (2 mg./kg. S.C., reading at 0.5 hours); 100% in data set [2] (setting [5]); 36% in data set [2] (setting [6]); 100% in data set [2] (setting [7]); 100% in data set [2] (setting [8]).

Consider `COc1cccc([C@]23CCCC[C@@H]2CN(CC2CC2)CC3)c1` (relative stereo) [Trans-dl-1-cyclopropylmethyl-3a-(m-methoxyphenyl)-1,2,3,3a,4,5,6,7,7a,8-decahydroisoquinoline maleate], for which the “Increase in Reaction Time Over Control” value in data set [1] (oral, 20 mg./kg., 30 min) was 1.10 s; in data set [1] (oral, 20 mg./kg., 120 min), “.20 s”; in data set [1] (oral, 80 mg./kg., 30 min), 8.05 s; in data set [1] (oral, 80 mg./kg., 120 min), 1.19 s; in data set [1] (subcutaneous, 80 mg./kg., 30 min) it was 1.75 s; in data set [1] (subcutaneous, 80 mg./kg., 120 min), 1.05 s. The “% Inhibition” value in data set [2] (10 mg./kg. S.C., reading at 0.5 hours) is 20%; in data set [2] (setting [5]) it was 64%; in data set [2] (20 mg./kg. oral, reading at 0.25 hours), 5%; in data set [2] (setting [6]), 13%; in data set [2] (50 mg./kg. oral, reading at 0.25 hours), 79%; in data set [2] (50 mg./kg. oral, reading at 0.5 hours) it was 69%. Besides, the “% Inhibition” value in data set [2] (setting [7]) is 100%; in data set [2] (100 mg./kg. oral, reading at 0.25 hours) it was 89%; in data set [2] (setting [8]) it was 87%. Further, the ED50 in data set [2] (sc, S.C.) was in the range of 10 to 20 mg/kg; in data set [2] (oral) it was 20 to 50 mg/kg.

With `COc1cccc([C@]23CCCC[C@@H]2CN(CC2CC2)CC3)c1` (relative stereo) [Trans-dl-1-cyclopropylmethyl-3a-(m-methoxyphenyl)-1,2,3,3a,4.5,6,7,7a,8-decahydroisoquinoline], the antagonism of morphine entry in data set [3] (dose not stated) was “found to antagonize morphine”.

In the case of `Oc1cccc([C@]23CCCC[C@@H]2CN(CC2CC2)CC3)c1` (stereo in doubt) [Trans-dl-1-cyclopropylmethyl-3a-(m-hydroxyphenyl)-1,2,3,3a,4,5,6,7,7a,8-decahydroisoquinoline], the “antagonism of morphine analgesia” value in data set [3] (50 mg./kg. oral, 30 minutes prior to test, morphine 5 mg./kg. 10 minutes prior to test) is “reduces the analgesic response to 5 mg./kg. of morphine”. The “% Inhibition” value in data set [2] (2 mg./kg. S.C., reading at 0.25 hours) was 43%; in data set [2] (5 mg./kg. S.C., reading at 0.25 hours), 70%. For the same molecule, in data set [2] (sc, S.C., readings of this compound at 0.25 hours), the ED50 lay in the range of 2 to 5 mg/kg.

Consider `C=CCN1CC[C@]23c4c5ccc(OC)c4O[C@H]2[C@@H](O)C=C[C@H]3[C@H]1C5` [N-allylnorcodeine], for which, in data set [4], the “opiate antagonist / agonist properties” value was “opiate antagonist”.

`COc1ccc2c3c1O[C@H]1[C@@H](O)C=C[C@H]4[C@@H](C2)N(C)CC[C@@]341` [codeine]: in data set [4], the analgesic activity entry is on record as “relatively mild analgesic agonist” and the “dependance (addiction) liability” value was “slight dependance (addiction) liability”.

Take `CC(=O)Oc1ccc2c3c1O[C@H]1[C@@H](OC(C)=O)C=C[C@H]4[C@@H](C2)N(C)CC[C@@]341` [heroin]: in data set [4], the analgesic activity result is given as “powerful agonist” and the “dependance (addiction) liability” value is given as “extremely high addiction potential”.

For `C=CCN1CC[C@]23c4c5ccc(O)c4O[C@H]2[C@@H](O)C=C[C@H]3[C@H]1C5` [nalorphine, N-allylnormorphine], the “opiate antagonist / agonist properties” value in data set [4] is “highly specific ability to reverse the depressant effects of morphine”.

Consider `CC(C)=CCN1CCC2(C)c3cc(O)ccc3CC1C2C` (stereo not shown) [pentazocine], for which, in data set [4], the “dependance (addiction) liability” value is “retain a certain degree of opiate dependance liability”; the “opiate antagonist / agonist properties” value was “both antagonists and agonists”.

Consider `CC1C2Cc3ccc(O)cc3C1(C)CCN2CCc1ccccc1` (stereo not shown) [phenazocine], for which, in data set [4], the “dependance (addiction) liability” value is given as “retain a certain degree of opiate dependance liability”; the “opiate antagonist / agonist properties” value is “both antagonists and agonists”.
